Tests used:
pPERK in 786-O tumors = assay: pPERK in 786-O tumor xenografts; type: in vivo, mouse; conditions: for pPERK accumulation in 786-O tumors: PD arm, 7 days of dosing, single agent; for pPERK levels in 786-O tumors: single agent PO, several dose levels, 21 days (FIG. 26)
786-O RCC xenograft = 786-O RCC xenograft tumor growth; type: in vivo, mouse; conditions: for effect on tumor volume: single agent, efficacy arms (FIG. 28)
Method: (§1) Xenograft RCC models were generated as follows: Female NOD.SCID mice (6-8 weeks of age) were injected with A498 RCC cells (5×10^6 cells/mouse), female Balb/c Nude mice (6-8 weeks old) were implanted with 786-O RCC cells (5×10^6 cells/mouse) or Caki-1 RCC cells (6×10^6 cells/mouse), female Athymic Nude-Foxn1nu mice (7-8 weeks of age) were implanted with MFE280 endometrial cells (10×10^6 cells/mouse). Cells were implanted into the flank of animals.
(§2) Once tumor tumors reached volume of typically 150-250 mm^3, animals were randomized by tumor volume into the treatment groups of 8 or 10 animals per group. In the single animal trial with RCC PDX models, only one animal per group was enrolled.
(§3) Body weight and tumor volume were measured twice weekly. Tumor volume was calculated using the formula [tumor volume (mm^3)=π/6×length×width^2] and plotted as means+SEM. The percentage of tumor growth inhibition was calculated at the end of the study using the formula: […], if ΔT>0, ΔT, mean tumor volume of the drug-treated group on the observation day of the study—mean tumor volume of the drug-treated group on initial day of dosing; ΔC, mean tumor volume of the control group on the observation day of the study—mean tumor volume of the control group on initial day of dosing. Regression was calculated using the formula=100×ΔT/Tinitial, if ΔT<0. Animals with >50% regressions were partial responders. Animals with tumor volume of 0 (no measurable tumor) were considered as complete responders, and animals with <50% tumor regression and 30% growth over the baseline were considered as stable disease. Animals with tumors>30% increase over the baseline were considered progressive disease. The % change in body weight was calculated by the formula (body weight on observation day−body weight on initial day)/body weight on initial day×100%.

[1] = mouse body weight / tolerability; type: in vivo; conditions: for body weight loss: 786-O xenografts, single agent PO, 21 days (FIG. 26)
Method: as §3

[2] = system: MFE280 endometrial cancer model; assay: MFE280 endometrial xenograft tumor growth; type: in vivo, mouse; conditions: single agent: HC-5404 30 mg/kg PO BID or lenvatinib 10 mg/kg QD (FIG. 77)
Method: as §1, §2
(§4) Body weight and tumor volume were measured twice weekly. Tumor volume was calculated using the formula [tumor volume (mm^3)=π/6×length×width^2] and plotted as means+SEM. The percentage of tumor growth inhibition was calculated at the end of the study using the formula: 100−[1−(ΔT/ΔC)], if ΔT>0, ΔT, mean tumor volume of the drug-treated group on the observation day of the study—mean tumor volume of the drug-treated group on initial day of dosing; ΔC, mean tumor volume of the control group on the observation day of the study—mean tumor volume of the control group on initial day of dosing. Regression was calculated using the formula=100×ΔT/Tinitial, if ΔT<0. […]

[3] = system: RCC patient-derived xenografts (PDXs); assay: single-animal study in RCC PDX models; type: in vivo, mouse
Description: For patient derived xenograft model generation, small pieces of neuroendocrine pancreatic cancers were implanted into female NSG mice (6-8 weeks of age), fragments of Huprime gastric cancers were implanted into female Balb/c nude mice and for a single animal trial in RCC PDX models, tumor fragments from selected RCC PDX models were implanted into mice unilaterally.
as §2
as §4, with “ΔT<0. Animals with >50% regressions were partial responders.” for “ΔT<0.”

[4] = system: tumor vasculature of 786-O xenografts; assay: IHC of tumor vasculature in 786-O xenografts; type: in vivo, mouse
Method: (§5) Formalin-fixed paraffin-embedded samples were sectioned at 5 μm thickness and mounted on Superfrost Plus microscope slides (Fisher Scientific). All immunohistochemical (IHC) staining was performed on Bond Rx auto-stainer (Leica Biosystems) using the conventional TSA-amplified detection system. Primary antibodies used were as follows: α-CD31 (Abcam #ab182981), α-smooth muscle actin (SMA; Abcam #ab124964), α-Meca32 (Novus Biologicals #NB100-77668). TSA-conjugated Alexa488 and Alexa647 fluorophores from Invitrogen (#B40953 and #B40958) were used at 1:500 dilution. Slides were counterstained with DAPI and cover slipped using Mowiol antifade mounting media (Sigma #D2522).
(§6) Slides were imaged with Aperio Versa 200 (Leica Biosystems) whole-slide scanner using 10×/0.32NA objective, and the data were analyzed using custom-written macros in ImageJ/FIJI (NIH). Briefly, 150 μm of outer edges of the tumor sections were eliminated from the analysis. Gaussian-blurred DAPI channel was used to measure the area of the tissue. Scans of […] were processed with median filter to remove noise, then positive areas were measured with appropriate threshold levels. % positive area for each marker was calculated. CD31-SMA double positive areas were measured via image calculation of the binary images. One-way ANOVA and pair-wise comparisons were performed on the data using Prism GraphPad.
PERK is an adaptive stress response that links hypoxia and nutrient deprivation with proangiogenic signaling. The effect of HC-5404 on tumor vasculature when administered in combination with antiangiogenic VEGFR-TKIs was investigated.
As immature blood vessels mature, they develop a mural layer of cells that express smooth muscle actin (SMA), which encircles and stabilizes the maturing vessel. Co-staining for both CD31 and SMA was conducted to determine whether treatments were affecting mature or immature tumor blood vessels.
This example investigated the inhibition the effect of cabozantinib on the formation of new tumor vasculature and on pericytes following procedures analogous to those described above.

[5] = system: tumor vasculature and pericyte cells of 786-O xenografts progressed on axitinib; assay: IHC of tumor vasculature and pericytes in 786-O xenografts that progressed on axitinib; type: in vivo, mouse
Method: as §5, §6
After 14 days of treatments, 77 mice bearing the largest tumors were rerandomized into four PD arms (n=8), four efficacy arms (n=10), and 5 tumors sampled on day of rerandomization as a baseline. The remaining animals were removed from study.

A498 RCC xenograft = A498 RCC xenograft tumor growth; type: in vivo, mouse; conditions: single agent: HC-5404 30 mg/kg PO BID or sunitinib 20 mg/kg PO QD (FIG. 31)
Method: as §1, §2, §3

Caki-1 RCC xenograft = Caki-1 RCC xenograft tumor growth; type: in vivo, mouse; conditions: HC-5404 or sunitinib monotherapy, compared with A498 (FIG. 32)
Method: as §1, §2, §3

[6] = 7 days after rerandomization (FIG. 92)

With `COc1cc2nccc(Oc3ccc(NC(=O)NC4CC4)c(Cl)c3)c2cc1C(N)=O` [lenvatinib] the “pPERK accumulation in 786-O tumors” value (pPERK in 786-O tumors) was “induced pPERK accumulation”, the “pPERK levels in 786-O tumors” value (pPERK in 786-O tumors) was “dose-dependent increases in pPERK” and the “effect on tumor volume” value (786-O RCC xenograft) was “modest effects on tumor volume”. The body weight loss [1] was “no treatment-associated body weight loss was observed” and the TGI % [2] was ~ 85%.

For `CNC(=O)c1ccccc1Sc1ccc2c(/C=C/c3ccccn3)n[nH]c2c1` [axitinib], the “pPERK accumulation in 786-O tumors” value (pPERK in 786-O tumors) was “induced pPERK accumulation”, the “pPERK levels in 786-O tumors” value (pPERK in 786-O tumors) was “dose-dependent increases in pPERK” and the “effect on tumor volume” value (786-O RCC xenograft) was “modest effects on tumor volume”. For the same molecule, the “partial responses (PRs) among models” value ([3]; 15 RCC PDX models, 28 days, PR: regression >50% vs baseline (FIG. 35)) was 1/15, the “sensitivity of VHLwt models to axitinib” value ([3]; three of the VHLwt models) was “decreased sensitivity to axitinib” and the “proportion of Meca32 expressing vascular endothelial cells” value ([4]; axitinib study (FIG. 38, 39)) was “decreased”. For the same molecule, the “immature CD31+SMA− vessels” value ([4]; axitinib study (FIG. 39)) was “decreased”, the “mature CD31+SMA+ cells” value ([4]; axitinib study (FIG. 39)) was “did not affect” and the “proportion of cells expressing CD31” value [5, 6] was “decreased by axitinib”. The “proportion of smooth muscle actin (SMA)” value [5, 6] was “decreased”, the “number of Meca32+ and CD31+ cells” value ([5]; FIG. 41, 42) was “decreased” and the “MCAM+ cells” value ([5]; FIG. 43, 44) was “decreased by axitinib”. The body weight loss [1] was “no treatment-associated body weight loss was observed”.

In the case of `CCN(CC)CCNC(=O)c1c(C)[nH]c(/C=C2\C(=O)Nc3ccc(F)cc32)c1C` [sunitinib, reference compound], the “pPERK accumulation in 786-O tumors” value (pPERK in 786-O tumors) is reported as “induced pPERK accumulation”, the “pPERK in 786-O xenografts” value (pPERK in 786-O tumors; sunitinib single agent) is reported as “increased pPERK” and the “time course of pPERK increase in 786-O xenografts” value (pPERK in 786-O tumors; sunitinib single agent) is reported as “increased over time”. The “inhibition of 786-O growth” value (786-O RCC xenograft; sunitinib single agent 40 mg/kg QD (FIG. 28)) was “effective inhibitor of 786-O growth”, the TGI (A498 RCC xenograft) was 80% and the “sensitivity of Caki-1 to monotherapy” value (Caki-1 RCC xenograft) was “far less sensitive”.

With `COc1cc2nccc(Oc3ccc(NC(=O)C4(C(=O)Nc5ccc(F)cc5)CC4)cc3)c2cc1OC` [cabozantinib] the “pPERK accumulation in 786-O tumors” value (pPERK in 786-O tumors) was “induced pPERK accumulation”, the “pPERK levels in 786-O tumors” value (pPERK in 786-O tumors) was “dose-dependent increases in pPERK” and the partial responses (786-O RCC xenograft; cabozantinib 30 mg/kg QD alone or with HC-5404 10 or 30 mg/kg BID (each group)) was 2/8. The tumor response (786-O RCC xenograft; cabozantinib 30 mg/kg QD monotherapy (FIG. 52)) was “tumor stasis”, the “effect on tumor volume” value (786-O RCC xenograft) was “modest effects on tumor volume” and the “immature vasculature (CD31+SMA− cells)” value ([4]; cabozantinib study (FIG. 54, 55)) was “near complete loss of immature vasculature”. For the same molecule, the body weight loss [1] was “no treatment-associated body weight loss was observed” and the mouse body weight ([1]; 786-O, HC-5404 3, 10, 30 mg/kg BID and/or cabozantinib 30 mg/kg QD (FIG. 53)) was “did not affect mouse body weight”.
